Reference: the NIST ThermoML archive (doi:10.1016/j.jct.2017.10.004)
Numbers after ± are expanded uncertainties.

Legend:
[1] = 100 kPa, Liquid; for electrical conductivity: Alternating current cell with electrodes; for viscosity: Capillary tube (Ostwald / Ubbelohde) method; for mass density: Vibrating tube method
[2] = xn = mol fraction of the nth substance listed; settings: 100 kPa, Liquid, x2 = 0; for viscosity: Capillary tube (Ostwald / Ubbelohde) method; for mass density: Vibrating tube method

Q: Which results are given for Cn1cc[n+](C)c1.O=S(=O)([N-]S(=O)(=O)C(F)(F)F)C(F)(F)F [1,3-dimethylimidazolium bis((trifluoromethyl)sulfonyl)amide]?
A: electrical conductivity ([1]; 298.15 K): 0.774 ± 0.023 S/m; viscosity ([1]; 298.15 K): 39.43 ± 1.6 mPa·s; mass density ([1]; 298.15 K): 1575.42 ± 4.7 kg/m3; electrical conductivity ([1]; 303.15 K): 0.915 ± 0.027 S/m; viscosity ([1]; 303.15 K): 32.51 ± 1.3 mPa·s; mass density ([1]; 303.15 K): 1570.25 ± 4.7 kg/m3; electrical conductivity ([1]; 308.15 K): 1.06 ± 0.032 S/m; viscosity ([1]; 308.15 K): 27.47 ± 1.1 mPa·s; mass density ([1]; 308.15 K): 1565.01 ± 4.6 kg/m3; electrical conductivity ([1]; 313.15 K): 1.2 ± 0.036 S/m; viscosity ([1]; 313.15 K): 23.43 ± 0.95 mPa·s; mass density ([1]; 313.15 K): 1559.73 ± 4.6 kg/m3; electrical conductivity ([1]; 318.15 K): 1.35 ± 0.041 S/m; viscosity ([1]; 318.15 K): 20.25 ± 0.82 mPa·s; mass density ([1]; 318.15 K): 1554.49 ± 4.6 kg/m3; electrical conductivity ([1]; 323.15 K): 1.51 ± 0.045 S/m; viscosity ([1]; 323.15 K): 17.72 ± 0.72 mPa·s; mass density ([1]; 323.15 K): 1549.34 ± 4.6 kg/m3

Q: What does the source list for O=C1CCCO1 [γ-butyrolactone] + Cn1cc[n+](C)c1.O=S(=O)([N-]S(=O)(=O)C(F)(F)F)C(F)(F)F?
A: viscosity ([2]; 298.15 K): 1.71 ± 0.07 mPa·s; mass density ([2]; 298.15 K): 1124.59 ± 4.6 kg/m3; viscosity ([2]; 303.15 K): 1.58 ± 0.06 mPa·s; mass density ([2]; 303.15 K): 1119.68 ± 4.6 kg/m3; viscosity ([2]; 308.15 K): 1.47 ± 0.06 mPa·s; mass density ([2]; 308.15 K): 1114.78 ± 4.6 kg/m3; viscosity ([2]; 313.15 K): 1.37 ± 0.06 mPa·s; mass density ([2]; 313.15 K): 1109.87 ± 4.6 kg/m3; viscosity ([2]; 318.15 K): 1.28 ± 0.05 mPa·s; mass density ([2]; 318.15 K): 1104.96 ± 4.6 kg/m3; viscosity ([2]; 323.15 K): 1.2 ± 0.05 mPa·s; mass density ([2]; 323.15 K): 1100.05 ± 4.6 kg/m3
